ChEMBL document CHEMBL1127634, “Calculation of relative differences in the binding free energies of HIV1 protease inhibitors: a thermodynamic cycle perturbation approach” (J Med Chem, 1994)

Target: Human immunodeficiency virus type 1 protease (Human immunodeficiency virus 1, UniProt Q72874)
Assay: Binding affinity against HIV -1 protease

Row | Structure (SMILES) | Ki [nM]
1 | Cc1cccc(C(NC(=O)CC[C@H](O)[C@H](Cc2ccccc2)NC(=O)CC(NC(=O)c2ccc3ccccc3n2)C(=O)O)c2cc3ccccc3[nH]2)c1 (stereo not given in full) | 39
2 | O=C(CC[C@H](O)[C@H](Cc1ccccc1)NC(=O)CC(NC(=O)c1ccc2ccccc2n1)C(=O)O)NC(c1ccccc1)c1cc2ccccc2[nH]1 (stereo not given in full) | 200
3 | C[C@H](N)C(=O)N[C@@H](C)C(=O)N[C@@H](Cc1ccccc1)[C@@H](O)CCC(=O)NC(c1ccccc1)c1nc2ccccc2[nH]1 (stereo not given in full) | 5370
4 | O=C(CC[C@H](O)[C@H](Cc1ccccc1)NC(=O)CC(NC(=O)c1ccc2ccccc2n1)C(=O)O)NC(c1cccc(C(F)(F)F)c1)c1cc2ccccc2[nH]1 (stereo not given in full) | 33
5 | C[C@H](N)C(=O)N[C@@H](C)C(=O)N[C@@H](Cc1ccccc1)[C@@H](O)CCC(=O)NC(c1ccccc1)c1cc2ccccc2[nH]1 (stereo not given in full) | 43
